PMC9264115, “Pd-catalyzed C–C and C–N cross-coupling reactions in 2-aminothieno[3,2-d]pyrimidin-4(3H)-one series for antiplasmodial pharmacomodulation” (RSC Advances, 2022)

Key:
[1] = system: K1 culture-adapted P. falciparum strain; test: Antiplasmodial evaluation, SYBR Green I fluorescence-based drug susceptibility test; assay type: cell-based; settings: for EC50: Plasmodium falciparum, multi-resistant K1 strain of P. falciparum, 72 h incubation, three independent experiments, read-out: EC50 PfK1; for SI (selectivity index): from CC50 HepG2 and EC50 PfK1
Description: […]. Parasitemia was maintained daily between 1 and 3%. The P. falciparum drug susceptibility test was carried out by comparing quantities of DNA in treated and control cultures of parasite in human erythrocytes according to a SYBR Green I fluorescence-based method[19] using a 96-well fluorescence plate reader. Compounds previously dissolved in DMSO (final concentration less than 0.5% v/v) were incubated in a total assay volume of 200 μL (RPMI, 2% hematocrit and 0.4% parasitemia) for 72 h in a humidified atmosphere (10% O2 and 5% CO2) at 37 °C in 96-well flat bottom plates. Duplicate assays were performed for each sample. After incubation, plates were frozen at […] for 24 h. Then, the frozen plates were thawed for 1 h at 37 °C. Fifteen μL of each sample were transferred to 96-well flat bottom non-sterile black plates (Greiner Bio-one, Kremsmünster, Austria), already containing 15 μL of the SYBR Green I lysis buffer (2X SYBR Green I, 20 mM Tris base pH 7.5, 20 mM EDTA, 0.008% w/v saponin, 0.08% w/v Triton X-100). […] Plates were incubated for 15 min at 37 °C and then read on a TECAN Infinite F-200 spectrophotometer with excitation and emission wavelengths at 485 and 535 nm, respectively.

[2] = Cytotoxic evaluation, MTT assay; assay type: cell-based; settings: HepG2 cells, human HepG2 cell line, three independent experiments
Description: The HepG2 cell line was maintained at 37 °C, 5% CO2, at 90% humidity in […] supplemented with 10% fetal bovine serum, 1% L-glutamine (200 mM), and penicillin (100 U per mL)/streptomycin (100 μg mL^−1) (complete RPMI medium). The cytotoxicity of the tested molecules on the HepG2 (hepatocarcinoma cell line purchased from ATCC, ref HB-8065) cell line was assessed according to the method of Mosmann[20] with slight modifications. Briefly, 5 × 10^3 cells in 100 μL of complete medium were inoculated into each well of 96-well plates and incubated at 37 °C in humidified 5% CO2. After 24 h incubation, 100 μL of medium with various product concentrations dissolved in DMSO (final concentration less than 0.5% v/v) were added and the plates were incubated for 72 h at 37 °C. Triplicate assays were performed for each sample. Each plate was then microscopically examined for possible precipitate formation before the medium was aspirated from the wells. Next, 100 μL of MTT (3-(4,5-dimethyl-2-thiazolyl)-2,5-diphenyl-2H-tetrazolium bromide) solution (0.5 mg mL^−1 in medium without FBS) was added to each well. Cells were incubated for 2 h at 37 °C. After this time, the MTT solution was removed and DMSO (100 μL) was added to dissolve the resulting blue formazan crystals. Plates were shaken vigorously (700 rpm) for 10 min. The absorbance was measured at 570 nm with 630 nm as a reference wavelength using a BIO-TEK ELx808 Absorbance Microplate Reader (LabX, Midland, ON, Canada). DMSO was used as a blank and doxorubicin (purchased from Sigma Aldrich) as a positive control. Cell viability was calculated as a percentage of control (cells incubated without the compound). […] CC50 values to represent the mean value calculated from three independent experiments.

SMILES	EC50 [1]	SI (selectivity index) [1]	CC50 at 72 h [2]	melting point
CC(C)(C)Nc1nc2cc(N3CCOCC3)sc2c(=O)[nH]1 [Compound 1f, 2-tert-Butylamino-6-(morpholin-4-yl)thieno[3,2-d]pyrimidin-4(3H)-one]	4.5 ± 1.1 µM	>11.1	> 50 µM	264 to 266 °C
Cc1ccc(C#Cc2cc3nc(NC(C)(C)C)[nH]c(=O)c3s2)cc1 [Compound 2b, 2-tert-Butylamino-6-[(4-methylphenyl)ethynyl]thieno[3,2-d]pyrimidin-4(3H)-one]	2.35 ± 0.38 µM	>5.3	> 12.5 µM	235 to 237 °C
Cc1ccc(C#Cc2cc3nc(NC(C)C)[nH]c(=O)c3s2)cc1 [Compound 2c, 6-[(4-methylphenyl)ethynyl]-2-(propan-2-ylamino)thieno[3,2-d]pyrimidin-4(3H)-one]	4.6 ± 1 µM	0.7	3.1 ± 0.6 µM	277 to 279 °C
CC(C)(C)Nc1nc2cc(C#CC3CC3)sc2c(=O)[nH]1 [Compound 2e, 2-tert-Butylamino-6-(cyclopropylethynyl)thieno[3,2-d]pyrimidin-4(3H)-one]	1.9 ± 0.6 µM	10.9	20.8 ± 1.4 µM	158 to 160 °C
CC(C)Nc1nc2cc(C#Cc3ccccc3)sc2c(=O)[nH]1 [Compound 2h, 6-(phenylethynyl)-2-(propan-2-ylamino)thieno[3,2-d]pyrimidin-4(3H)-one]	2.8 ± 1 µM	>4.5	> 12.5 µM	276 to 278 °C
CC(C)Nc1nc2cc(Br)sc2c(=O)[nH]1 [Compound 3, 6-Bromo-2-(propan-2-ylamino)thieno[3,2-d]pyrimidin-4(3H)-one]	> 50 µM	<1.8	89.1 ± 9.7 µM	240 to 242 °C
COC(=O)c1ccc(-c2cc3nc(NC(C)(C)C)[nH]c(=O)c3s2)cc1 [Compound 4a, Methyl-4-(2-tert-butylamino-4-oxo-3,4-dihydrothieno[3,2-d]pyrimidin-6-yl)benzoate]	2.5 ± 0.9 µM	>5.0	> 12.5 µM	> 300 °C
CC(C)(C)Nc1nc2cc(-c3ccc(F)c(Cl)c3)sc2c(=O)[nH]1 [Compound 4e, 2-tert-Butylamino-6-(3-chloro-4-fluorophenyl)thieno[3,2-d]pyrimidin-4(3H)-one]	2 ± 0.9 µM	>6.3	> 12.5 µM	259 to 261 °C
CC(C)Nc1nc2cc(-c3ccc(F)c(Cl)c3)sc2c(=O)[nH]1 [Compound 4f, 2-(Propan-2-ylamino)-6-(3-chloro-4-fluorophenyl)thieno[3,2-d]pyrimidin-4(3H)-one]	3.6 ± 1.2 µM	>1.7	> 6.25 µM	> 300 °C
CC(C)(C)Nc1nc2cc(-c3ccc(N4CCOCC4)cc3)sc2c(=O)[nH]1 [Compound 4g, 2-tert-Butylamino-6-[4-(morpholin-4-yl)phenyl]thieno[3,2-d]pyrimidin-4(3H)-one]	2.4 ± 0.9 µM	3.3	7.9 ± 1.3 µM	> 300 °C
CSc1ccc(-c2cc3nc(NC(C)(C)C)[nH]c(=O)c3s2)cc1 [Compound 4j, 2-tert-Butylamino-6-[4-(methylsulfanyl)phenyl]thieno[3,2-d]pyrimidin-4(3H)-one]	1 ± 0.3 µM	>12.5	> 12.5 µM	272 to 274 °C
CC(C)(C)Nc1nc2cc(-c3ccc(S(N)(=O)=O)cc3)sc2c(=O)[nH]1 [Compound 4l, 4-(2-tert-Butylamino-4-oxo-3,4-dihydrothieno[3,2-d]pyrimidin-6-yl)benzenesulfonamide]	> 12.5 µM	–	> 6.25 µM	> 300 °C
CC(C)(C)Nc1nc2cc(-c3ccc(S(=O)(=O)N4CCOCC4)cc3)sc2c(=O)[nH]1 [Compound 4m, 2-tert-Butylamino-6-[4-(morpholin-4-ylsulfonyl)phenyl]thieno[3,2-d]pyrimidin-4(3H)-one]	5.1 ± 2.6 µM	>2.5	> 12.5 µM	> 300 °C
CC(C)(C)Nc1nc2cc(-c3cnc(N4CCOCC4)nc3)sc2c(=O)[nH]1 [Compound 4n, 2-tert-Butylamino-6-[2-(morpholin-4-yl)pyrimidin-5-yl]thieno[3,2-d]pyrimidin-4(3H)-one]	2.1 ± 0.6 µM	12.6	26.4 ± 4.6 µM	> 300 °C
CN1CCN(c2ncc(-c3cc4nc(NC(C)(C)C)[nH]c(=O)c4s3)cn2)CC1 [Compound 4o, 2-tert-Butylamino-6-[2-(4-methylpiperazin-1-yl)pyrimidin-5-yl]thieno[3,2-d]pyrimidin-4(3H)-one]	4.4 ± 1 µM	2.5	11.2 ± 1.3 µM	289 to 291 °C
CC(C)(C)Nc1nc2cc(-c3ccc(N)cc3)sc2c(=O)[nH]1 [Compound 4p, 6-(4-aminophenyl)-2-tert-butylaminothieno[3,2-d]pyrimidin-4(3H)-one]	3.5 ± 1.2 µM	0.7	2.5 ± 1 µM	259 to 261 °C
CC(=O)Nc1ccc(-c2cc3nc(NC(C)(C)C)[nH]c(=O)c3s2)cc1 [Compound 4r, N-[4-(2-tert-butylamino-4-oxo-3,4-dihydrothieno[3,2-d]pyrimidin-6-yl)phenyl]acetamide]	3.9 ± 1.1 µM	<0.1	0.16 ± 0.04 µM	> 300 °C
CC(C)(C)Nc1nc2cc(-c3ccc(S(C)(=N)=O)cc3)sc2c(=O)[nH]1 (centres unmarked) [Compound 4s, 2-tert-Butylamino-6-[4-(methylsulfonimidoyl)phenyl]thieno[3,2-d]pyrimidin-4(3H)-one]	> 12.5 µM	<5.1	63.3 ± 14.6 µM	251 to 253 °C
